Experimental findings from US10906924B2, “Modulators of indoleamine 2,3-dioxygenase” (GLAXOSMITHKLINE INTELLECTUAL PROPERTY DEVELOPMENT LIMITED, priority 2017, dated 2021) are described below.

Chain of indoleamine 2,3-dioxygenase (IDO1) (P14902 whole entry): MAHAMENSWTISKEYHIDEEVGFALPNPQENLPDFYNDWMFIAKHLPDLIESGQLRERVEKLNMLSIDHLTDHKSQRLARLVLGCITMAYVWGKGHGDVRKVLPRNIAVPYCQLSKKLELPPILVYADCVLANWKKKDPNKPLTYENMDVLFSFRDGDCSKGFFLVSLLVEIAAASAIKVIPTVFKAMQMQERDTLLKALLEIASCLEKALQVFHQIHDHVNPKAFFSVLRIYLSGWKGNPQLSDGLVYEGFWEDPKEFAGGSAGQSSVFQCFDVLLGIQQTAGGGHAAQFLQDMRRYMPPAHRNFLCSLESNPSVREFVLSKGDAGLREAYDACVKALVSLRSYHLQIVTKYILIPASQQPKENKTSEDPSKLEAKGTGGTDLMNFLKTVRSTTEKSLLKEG

This assay has as its target indoleamine 2,3-dioxygenase (IDO1) (Homo sapiens, UniProt P14902). The assay can be described thus: PBMC IDO1 assay (kynurenine by mass spectrometry). It counts as cell-based. Conditions: human PBMC stimulated with IFN-γ and LPS, 2 days incubation, kynurenine detected by mass spectrometry; read-out: IDO1 PBMC pIC50 (converted).
On to `COC(=O)N1CCC2(CC1)C[C@H](NC(=O)c1cccc3cc[nH]c13)c1cc(Br)ccc1O2` [Example 4, (S)-methyl 6-bromo-4-(1H-indole-7-carboxamido)spiro[chroman-2,4′-piperidine]-1′-carboxylate], for which the IC50 was 0.00398 µM.
Then `COC(=O)N1CCC2(CC1)C[C@H](NC(=O)c1cccc3cn[nH]c13)c1cc(Br)ccc1O2` [Example 5, (S)-methyl 6-bromo-4-(1H-indazole-7-carboxamido)spiro[chroman-2,4′-piperidine]-1′-carboxylate], with 0.00501 µM; and `CCOC(=O)N1CCC2(CC1)C[C@H](NC(=O)c1cccc3[nH]ccc13)c1cc(Br)ccc1O2` [Example 8, (S)-ethyl 6-bromo-4-(1H-indole-4-carboxamido)spiro[chroman-2,4′-piperidine]-1′-carboxylate], with 0.00501 µM; and `CCOC(=O)N1CCC2(CC1)CC(NC(=O)c1cccc3cn[nH]c13)c1nc(OC)ccc1O2` (stereo not shown) [Example 9, ethyl 4′-(1H-indazole-7-carboxamido)-6′-methoxy-3′,4′-dihydrospiro[piperidine-4,2′-pyrano[3,2-b]pyridine]-1-carboxylate], with 0.01 µM.
In the case of `CCOC(=O)N1CCC2(CC1)C[C@H](NC(=O)c1ccccc1N)c1cc(Br)ccc1O2` [Example 10, (S)-ethyl 4-(2-aminobenzamido)-6-bromospiro[chroman-2,4′-piperidine]-1′-carboxylate] it was 0.0126 µM; in that of `CCOC(=O)N1CCC2(CC1)CC(NC(=O)c1cccc3cn[nH]c13)c1cc(Br)ncc1O2` (stereo not shown) [Example 16, ethyl 6′-bromo-4′-(1H-indazole-7-carboxamido)-3′,4′-dihydrospiro[piperidine-4,2′-pyrano[2,3-c]pyridine]-1-carboxylate], 0.0316 µM.
On to `CCOC(=O)N1CCC2(CC1)CC(NC(=O)c1cccc3cc[nH]c13)c1c(Br)cccc1O2` (stereo not shown) [Example 17, ethyl 5-bromo-4-(1H-indole-7-carboxamido)spiro[chroman-2,4′-piperidine]-1′-carboxylate], for which the IC50 was 0.0398 µM.
Take `CCOC(=O)N1CCC2(CC1)CC(NC(=O)c1cccc3cn[nH]c13)c1cc(CO)ccc1O2` (stereo not shown) [Example 18, ethyl 6-(hydroxymethyl)-4-(1H-indazole-7-carboxamido)spiro[chroman-2,4′-piperidine]-1′-carboxylate]: the IC50 is 0.0398 µM.
For `CCOC(=O)N1CCC2(CC1)CC(NC(=O)c1cccnc1)c1cc(Br)ccc1O2` (stereo not shown) [Example 21, ethyl 6-bromo-4-(nicotinamido)spiro[chroman-2,4′-piperidine]-1′-carboxylate], the IC50 is 0.0794 µM.
Then `CCCC(=O)N1CCC2(CC1)C[C@H](NC(=O)c1cccc3cn[nH]c13)c1cc(Br)ccc1O2` [Example 22, (S)—N-(6-bromo-1′-butyrylspiro[chroman-2,4′-piperidin]-4-yl)-1H-indazole-7-carboxamide], with 0.0794 µM; and `CCOC(=O)N1CCC2(CC1)CC(NC(=O)c1cccc3cn[nH]c13)c1cc(Br)cnc1O2` (stereo not shown) [Example 23, ethyl 6′-bromo-4′-(1H-indazole-7-carboxamido)-3′,4′-dihydrospiro[piperidine-4,2′-pyrano[2,3-b]pyridine]-1-carboxylate], with 0.0794 µM; and `CCOC(=O)N1CCC2(CC1)CC(NC(=O)c1cccc3cc[nH]c13)c1ccc(Br)cc1O2` (stereo not shown) [Example 24, ethyl 7-bromo-4-(1H-indole-7-carboxamido)spiro[chroman-2,4′-piperidine]-1′-carboxylate], with 0.1 µM.
In the case of `CCOC(=O)N1CCC2(CC1)C[C@H](NC(=O)c1cccc(O)n1)c1cc(Br)ccc1O2` [Example 25, (S)-ethyl 6-bromo-4-(6-hydroxypicolinamido)spiro[chroman-2,4′-piperidine]-1′-carboxylate] it was 0.1 µM; in that of `CCOC(=O)N1CCC2(CC1)CC(NC(=O)c1cncc3cn[nH]c13)c1ccccc1O2` (stereo not shown) [Example 26, ethyl 4-(1H-pyrazolo[4,3-c]pyridine-7-carboxamido)spiro[chroman-2,4′-piperidine]-1′-carboxylate], 0.126 µM.
In the case of `CCOC(=O)N1CCC2(CC1)CC(NC(=O)c1cccc3cn[nH]c13)c1ncccc1O2` (stereo not shown) [Example 29, ethyl 4′-(1H-indazole-7-carboxamido)-3′,4′-dihydrospiro[piperidine-4,2′-pyrano[3,2-b]pyridine]-1-carboxylate] it was 0.158 µM.
Consider `CCOC(=O)N1CCC2(CC1)CC(NC(=O)c1cncc(F)c1)c1ccccc1O2` (stereo not shown) [Example 30, ethyl 4-(5-fluoronicotinamido)spiro[chroman-2,4′-piperidine]-1′-carboxylate], for which the IC50 was 0.2 µM.
In the case of `O=C(N[C@H]1CC2(CCN(C(=O)Oc3ccccc3)CC2)Oc2ccc(Br)cc21)c1cccc2cn[nH]c12` [Example 31, (S)-phenyl 6-bromo-4-(1H-indazole-7-carboxamido)spiro[chroman-2,4′-piperidine]-1′-carboxylate], the IC50 was 0.2 µM.
In the case of `CCOC(=O)N1CCC2(CC1)C[C@H](NC(=O)c1ncc[nH]1)c1cc(Br)ccc1O2` [Example 32, (S)-ethyl 6-bromo-4-(1H-imidazole-2-carboxamido)spiro[chroman-2,4′-piperidine]-1′-carboxylate] it was 0.2 µM.
In the case of `CCOC(=O)N1CCC2(CC1)CC(NC(=O)c1cccc3cn[nH]c13)c1ccncc1O2` (stereo not shown) [Example 33, ethyl 4′-(1H-indazole-7-carboxamido)-3′,4′-dihydrospiro[piperidine-4,2′-pyrano[2,3-c]pyridine]-1-carboxylate] it was 0.2 µM; in that of `CCOC(=O)N1CCC2(CC1)CC(NC(=O)c1ccccn1)c1ccccc1O2` (stereo not shown) [Example 34, ethyl 4-(picolinamido)spiro[chroman-2,4′-piperidine]-1′-carboxylate], 0.251 µM; in that of `CCOC(=O)N1CCC2(CC1)CC(NC(=O)c1cccnc1)c1nc(OC)ccc1O2` (stereo not shown) [Example 35, ethyl 6′-methoxy-4′-(nicotinamido)-3′,4′-dihydrospiro[piperidine-4,2′-pyrano[3,2-b]pyridine]-1-carboxylate], 0.251 µM.
In the case of `CCOC(=O)N1CCC2(CC1)CC(NC(=O)c1cccc3ccn(C)c13)c1ccccc1O2` (stereo not shown) [Example 38, ethyl 4-(1-methyl-1H-indole-7-carboxamido)spiro[chroman-2,4′-piperidine]-1′-carboxylate], the IC50 was 0.398 µM.
Then `CCOC(=O)N1CCC2(CC1)CC(NC(=O)c1cccc3nc[nH]c13)c1ccccc1O2` (stereo not shown) [Example 39, ethyl 4-(1H-benzo[d]imidazole-7-carboxamido)spiro[chroman-2,4′-piperidine]-1′-carboxylate], with 0.398 µM; and `CCOC(=O)N1CCC2(CC1)CC(Nc1nnc(C(F)(F)F)s1)c1ccccc1O2` (stereo not shown) [Example 40, ethyl 4-((5-(trifluoromethyl)-1,3,4-thiadiazol-2-yl)amino)spiro[chroman-2,4′-piperidine]-1′-carboxylate], with 0.398 µM; and `CCOC(=O)N1CCC2(CC1)CC(NC(=O)c1cccnc1)c1ccccc1O2` (stereo not shown) [Example 41, ethyl 4-(nicotinamido)spiro[chroman-2,4′-piperidine]-1′-carboxylate], with 0.501 µM.
In the case of `CCOC(=O)N1CCC2(CC1)CC(NC(=O)c1cccc3cn[nH]c13)c1cccnc1O2` (stereo not shown) [Example 42, ethyl 4′-(1H-indazole-7-carboxamido)-3′,4′-dihydrospiro[piperidine-4,2′-pyrano[2,3-b]pyridine]-1-carboxylate] it was 0.501 µM; in that of `CCOC(=O)N1CCC2(CC1)CC(NC(=O)c1ccnn1C)c1ccccc1O2` (stereo not shown) [Example 43, ethyl 4-(1-methyl-1H-pyrazole-5-carboxamido)spiro[chroman-2,4′-piperidine]-1′-carboxylate], 0.631 µM.
Then `CCOC(=O)N1CCC2(CC1)C[C@H](NC(=O)c1ccn[nH]1)c1cc(Br)ccc1O2` [Example 44, (S)-ethyl 6-bromo-4-(1H-pyrazole-5-carboxamido)spiro[chroman-2,4′-piperidine]-1′-carboxylate], with 0.631 µM; and `CCOC(=O)N1CCC2(CC1)CC(NC(=O)c1ncccn1)c1ccccc1O2` (stereo not shown) [Example 45, ethyl 4-(pyrimidine-2-carboxamido)spiro[chroman-2,4′-piperidine]-1′-carboxylate], with 0.794 µM.
Take `CCOC(=O)N1CCC2(CC1)CC(NC(=O)c1ncccc1OC)c1ccccc1O2` (stereo not shown) [Example 46, ethyl 4-(3-methoxypicolinamido)spiro[chroman-2,4′-piperidine]-1′-carboxylate]: the IC50 was 0.794 µM.
For the compound `CCOC(=O)N1CCC2(CC1)C[C@H](NC(=O)c1cccc3cn(COP(=O)(O)O)nc13)c1cc(Br)ccc1O2` [Example 50, 2-amino-2-(hydroxymethyl)propane-1,3-diol hemi((S)-(7-((6-bromo-1-(ethoxycarbonyl)spiro[chroman-2,4′-piperidin]-4-yl)carbamoyl)-2H-indazol-2-yl)methyl phosphate)], the IC50 was 0.126 µM.
Then `CCOC(=O)N1CCC2(CC1)C[C@H](NC(=O)c1cccc3cnn(C(=O)OCC)c13)c1cc(Br)ccc1O2` [Example 51, ethyl (S)-6-bromo-4-(1-(ethoxycarbonyl)-1H-indazole-7-carboxamido)spiro[chromane-2,4′-piperidine]-1′-carboxylate], with 0.01 µM.
In the case of `CCOC(=O)N1CCC2(CC1)C[C@H](NC(=O)c1cccc3cnn(C(C)=O)c13)c1cc(Br)ccc1O2` [Example 52, ethyl (S)-4-(1-acetyl-1H-indazole-7-carboxamido)-6-bromospiro [chromane-2,4′-piperidine]-1′-carboxylate] it was 0.00398 µM; in that of `COC(=O)N1CCC2(CC1)C[C@H](NC(=O)c1cccc3cn(COP(=O)(O)O)nc13)c1cc(Br)ccc1O2` [Example 53, 2-amino-2-(hydroxymethyl)propane-1,3-diol hemi((S)-(7-((6-bromo-1′-(methoxycarbonyl)spiro[chroman-2,4′-piperidin]-4-yl)carbamoyl)-2H-indazol-2-yl)methyl phosphate)], 0.631 µM.
